From ChEMBL document CHEMBL5728023, “Inhibitors of TRPC6” (2020)

Molecular target: T1, Short transient receptor potential channel 6 (Homo sapiens, UniProt Q9Y210)
T1 sequence (Q9Y210 whole entry): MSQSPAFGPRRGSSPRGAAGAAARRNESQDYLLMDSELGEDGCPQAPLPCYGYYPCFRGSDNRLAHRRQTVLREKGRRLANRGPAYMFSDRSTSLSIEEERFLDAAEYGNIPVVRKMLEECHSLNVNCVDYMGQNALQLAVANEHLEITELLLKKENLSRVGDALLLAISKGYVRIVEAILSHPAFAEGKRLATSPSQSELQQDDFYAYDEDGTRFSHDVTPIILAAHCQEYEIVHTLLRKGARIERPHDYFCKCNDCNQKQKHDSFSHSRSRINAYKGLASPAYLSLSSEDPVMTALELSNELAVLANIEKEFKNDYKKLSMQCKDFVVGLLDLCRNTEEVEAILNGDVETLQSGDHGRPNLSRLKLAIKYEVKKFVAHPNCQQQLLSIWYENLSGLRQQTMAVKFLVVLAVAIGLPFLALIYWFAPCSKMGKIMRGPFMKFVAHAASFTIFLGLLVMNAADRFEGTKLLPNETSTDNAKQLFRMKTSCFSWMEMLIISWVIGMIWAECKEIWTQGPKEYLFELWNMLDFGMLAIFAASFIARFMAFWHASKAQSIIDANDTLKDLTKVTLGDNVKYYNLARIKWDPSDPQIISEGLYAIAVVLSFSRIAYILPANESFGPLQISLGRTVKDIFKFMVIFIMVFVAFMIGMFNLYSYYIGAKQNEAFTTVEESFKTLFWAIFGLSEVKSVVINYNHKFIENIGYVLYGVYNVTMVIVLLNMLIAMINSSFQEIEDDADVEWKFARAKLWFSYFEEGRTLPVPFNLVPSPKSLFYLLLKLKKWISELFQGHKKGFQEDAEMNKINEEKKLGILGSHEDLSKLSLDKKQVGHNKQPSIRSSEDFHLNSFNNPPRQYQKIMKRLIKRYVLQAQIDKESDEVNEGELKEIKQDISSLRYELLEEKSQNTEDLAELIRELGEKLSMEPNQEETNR
Assay: High Throughput Screening Assay: This screening assay measures TRPC6 (transient receptor potential cation channel, subfamily C, member 6) ion channel activation via addition either of the commercially available DAG ligand analogue OAG (1-oleoyl-2-acetyl-sn-glycerol) or of the TRPC6 agonist 1-[1-(4,5,6,7,8-pentahydrocyclohepta[2,1-d]thiophen-2-ylcarbonyl)-4-piperidyl]-3-hydrobenzimidazol-2-one (GSK1702934A). The assay utilizes a FLIPR fluorescent calcium sensor 4-(6-Acetoxymethoxy-2,7-difluoro-3-oxo-9-xanthenyl)-4′-methyl-2,2′-(ethylenedioxy)dianiline-N,N,N′,N′-tetraacetic acid tetrakis(acetoxymethyl) ester (Fluo4/AM) […]. Changes (increases) in intracellular membrane calcium concentration potential as measured by the fluorescent signal increase during membrane depolarization provide a measurement of channel activity.The commercially available HEK293/TREx line (Invitrogen) was stably transfected with a TRPC6 construct and screened by conventional calcium imaging to find clones with TRPC6 expression following stimulation with 1 μg/ml tetracycline. These cells were maintained in the growth medium recommended by the manufacturer supplemented with 100 μg/ml hygromycin to promote retention of the TRPC6 construct. […]
Format: cell membranes

SMILES: CCOc1cc(C(=O)N2C3CCC2CC(c2ccc(N)nn2)C3)ncc1Oc1ccc(F)cc1 (stereo unspecified)
- IC50: 2100 nM
